From ChEMBL document CHEMBL5321290, “Discovery of the Diphenyl 6-Oxo-1,6-dihydropyridazine-3-carboxylate/carboxamide Analogue J27 for the Treatment of Acute Lung Injury and Sepsis by Targeting JNK2 and Inhibiting the JNK2-NF-κB/MAPK Pathway” (J Med Chem, 2023) come the findings set out here.

The source made the active and inactive calls. The rule behind the calls is not given here.

The subject of test [1] is J774.A1. Description: Antiinflammatory activity against mouse J774A.1 cells assessed as inhibition of LPS-stimulated TNFalpha release measured at 10 uM after 30 mins by ELISA relative to control. The format is functional. The settings on record: for inhibition at 10 µM: J774.A1, 0.5 h. In general terms: In an ELISA, binding on a coated surface is turned into a signal by an enzyme label.

Test [2] deals with J774.A1. Nature of the test: Antiinflammatory activity against mouse J774A.1 cells assessed as inhibition of LPS-stimulated IL6 release measured at 10 uM after 30 mins by ELISA relative to control. Format: functional. The settings on record: for inhibition at 10 µM: J774.A1, 0.5 h.

Take `COc1cc2ncnc(Oc3ccc(NC(=O)c4nn(-c5ccc(F)cc5)c(=O)cc4C)cc3)c2cc1OC`: the figures for the inhibition at 10 µM in test [1] and in test [2] were 70.1% and 20.6%, respectively.

`CCc1ccccc1-n1nc(C(=O)Nc2cccc(Oc3ncnc4cc(OC)c(OC)cc34)c2)c(C)cc1=O`: the inhibition entry in test [1] and in test [2] was “inactive” throughout.

As for `CCc1ccccc1-n1nc(C(=O)Nc2ccc(Oc3ncnc4cc(OC)c(OC)cc34)cc2)c(C)cc1=O`, the inhibition at 10 µM in test [1] was determined as 58%; in test [2], 18.4%.

Take `COc1ccc(-n2nc(C(=O)Nc3cccc(Oc4ccnc5cc(OC)c(OC)cc45)c3)c(C)cc2=O)cc1`: the inhibition result in test [1] and in test [2] was “inactive” throughout.

As for `COc1cc2ncnc(Oc3cccc(NC(=O)c4nn(-c5ccc(F)cc5)c(=O)cc4C)c3)c2cc1OC`, in test [1], the inhibition entry is “inactive”. For the same molecule, the inhibition at 10 µM in test [2] came out at 16.1%.

On to `COc1ccc(-n2nc(C(=O)Nc3ccc(Oc4ncnc5cc(OC)c(OC)cc45)cc3)c(C)cc2=O)cc1`, for which, in test [1], the inhibition at 10 µM amounted to 57.5%. In test [2], the inhibition result is “inactive”.

For `CCc1ccc(-n2nc(C(=O)Nc3cccc(Oc4ncnc5cc(OC)c(OC)cc45)c3)c(C)cc2=O)cc1`, the inhibition entry in test [1] is “inactive”. In addition, in test [2], the inhibition at 10 µM turned out to be 39%.

For the molecule `COc1cc2ncnc(Nc3ccc(C)c(OC(=O)c4nn(-c5ccccc5)c(=O)cc4C)c3)c2cc1OC`, in test [1], the inhibition result is “inactive”. Moreover, the inhibition at 10 µM in test [2] came to 20.7%.

For `COc1ccc(-n2nc(C(=O)Nc3ccc(Oc4ccnc5cc(OC)c(OC)cc45)cc3)c(C)cc2=O)cc1`, the inhibition at 10 µM in test [1] amounted to 12.1%. For the same molecule, the inhibition result in test [2] is “inactive”.

Consider `COc1cc2nccc(Oc3cccc(NC(=O)c4nn(-c5ccccc5)c(=O)cc4C)c3)c2cc1OC`, for which the inhibition at 10 µM in test [1] was 0.35%. Moreover, the inhibition result in test [2] was “inactive”.

On to `CCc1ccccc1-n1nc(C(=O)Oc2cc(Nc3ncnc4cc(OC)c(OC)cc34)ccc2F)c(C)cc1=O`, for which the inhibition entry in test [1] and in test [2] was “inactive” in each case.

Take `COc1cc2nccc(Oc3ccc(NC(=O)c4nn(-c5ccc(F)cc5)c(=O)cc4C)cc3)c2cc1OC`: in test [1], the inhibition result was “inactive”. In test [2], the inhibition at 10 µM was determined as 5.11%.

Take `COc1ccc(-n2nc(C(=O)Oc3cc(Nc4ncnc5cc(OC)c(OC)cc45)ccc3F)c(C)cc2=O)cc1`: the inhibition entry in test [1] was “inactive”. In addition, the inhibition at 10 µM in test [2] was 31.9%.

With `COc1cc2ncnc(Oc3ccc(NC(=O)c4nn(-c5ccc(C)cc5)c(=O)cc4C)cc3)c2cc1OC`, the inhibition at 10 µM is 64% in test [1] and 63% in test [2].

Turning to `CCc1ccccc1-n1nc(C(=O)Nc2cccc(Oc3ccnc4cc(OC)c(OC)cc34)c2)c(C)cc1=O`, the inhibition at 10 µM in test [1] is 63.4%; in test [2], 25.1%.

As to `CCc1ccccc1-n1nc(C(=O)Nc2ccc(Oc3ccnc4cc(OC)c(OC)cc34)cc2)c(C)cc1=O`, the inhibition at 10 µM in test [1] is 27.9%; in test [2], 55.1%.

As to `CCc1ccc(-n2nc(C(=O)Nc3ccc(Oc4ccnc5cc(OC)c(OC)cc45)cc3)c(C)cc2=O)cc1`, the inhibition at 10 µM was 61.9% in test [1] and 34.9% in test [2].

As for `COc1cc2ncnc(Nc3ccc(F)c(OC(=O)c4nn(-c5ccc(C)cc5)c(=O)cc4C)c3)c2cc1OC`, the figures for the inhibition at 10 µM in test [1] and in test [2] were 34.9% and 48%, respectively.

For `COc1cc2nccc(Oc3ccc(NC(=O)c4nn(-c5ccccc5)c(=O)cc4C)cc3)c2cc1OC`, the inhibition at 10 µM in test [1] was 52%. For the same molecule, the inhibition entry in test [2] was “inactive”.

As for `COc1cc2ncnc(Nc3ccc(F)c(OC(=O)c4nn(-c5ccc(F)cc5)c(=O)cc4C)c3)c2cc1OC`, the inhibition at 10 µM in test [1] was found to be 38.8%; in test [2], 46.5%.

For `COc1cc2nccc(Oc3cccc(NC(=O)c4nn(-c5ccc(C)cc5)c(=O)cc4C)c3)c2cc1OC`, the inhibition result in test [1] and in test [2] was “inactive” in each case.

For `COc1cc2ncnc(Oc3ccc(NC(=O)c4nn(-c5ccccc5)c(=O)cc4C)cc3)c2cc1OC`, the inhibition at 10 µM was determined as 46.9% in test [1] and 54.8% in test [2].

Regarding `COc1cc2ncnc(Oc3cccc(NC(=O)c4nn(-c5ccccc5)c(=O)cc4C)c3)c2cc1OC`, the inhibition result in test [1] and in test [2] was “inactive” in each case.

In the case of `COc1cc2ncnc(Oc3cccc(NC(=O)c4nn(-c5ccc(C)cc5)c(=O)cc4C)c3)c2cc1OC`, the inhibition entry in test [1] is “inactive”. Further, the inhibition at 10 µM in test [2] was found to be 47.3%.

For `COc1ccc(-n2nc(C(=O)Nc3cccc(Oc4ncnc5cc(OC)c(OC)cc45)c3)c(C)cc2=O)cc1`, the inhibition result in test [1] was “inactive”. For the same molecule, the inhibition at 10 µM in test [2] is 7.64%.

Turning to `CCc1ccc(-n2nc(C(=O)Oc3cc(Nc4ncnc5cc(OC)c(OC)cc45)ccc3F)c(C)cc2=O)cc1`, the results for the inhibition at 10 µM in test [1] and in test [2] were 21.8% and 38.3%, respectively.

For the molecule `COc1cc2ncnc(Nc3ccc(OC(=O)c4nn(-c5ccccc5)c(=O)cc4C)c(C)c3)c2cc1OC`, the inhibition result in test [1] was “inactive”. The inhibition at 10 µM in test [2] amounted to 23.9%.

For the molecule `COc1cc2nccc(Oc3cccc(NC(=O)c4nn(-c5ccc(F)cc5)c(=O)cc4C)c3)c2cc1OC`, the results for the inhibition at 10 µM in test [1] and in test [2] were 20.6% and 38%, respectively.

Consider `COc1cc2ncnc(Nc3ccc(F)c(OC(=O)c4nn(-c5ccccc5)c(=O)cc4C)c3)c2cc1OC`, for which the figures for the inhibition at 10 µM in test [1] and in test [2] were 49.6% and 32.1%, respectively.

What is called inhibition is the drop in the measured response relative to a control, in per cent.
